Columns and labels:
ECHCG (barnyardgrass) = assay: Pre-emergence herbicidal activity, warm season; type: in vivo, Echinochloa crus-galli; conditions: GR80 = lowest tested rate (300, 100, 30, 10 g/ha) with 80% or greater inhibition; approx. 14 days after treating; 30/21° C.
Method in brief: (§1)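 Seeds sown in sterilised fertilised topsoil received surface-applied compound in 50:50 acetone/water, typically at 300, 100, 30 and 10 g/ha, then greenhouse-grown at 30/21° C (warm-season species) or 18/13° C (cool-season species). Percent inhibition versus untreated plants was scored at about 14 days, giving GR80; an asterisk marks activity short of 80% at the top rate.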

SETFA (giant foxtail) [1] = assay: Pre-emergence herbicidal activity, warm season; type: in vivo, Setaria faberi; conditions: GR80 = lowest tested rate (300, 100, 30, 10 g/ha) with 80% or greater inhibition; approx. 14 days after treating; 30/21° C.
Method in brief: as §1

[2] = system: GALAP (catchweed bedstraw); assay: Pre-emergence herbicidal activity, cool season; type: in vivo, Galium aparine; conditions: lowest tested rate with 80% or greater inhibition; rates 300, 100, 30, 10 g/ha; about 14 days
Method in brief: as §1

[3] = system: VERPE (creeping speedwell); assay: Pre-emergence herbicidal activity, cool season; type: in vivo, Veronica persicaria; conditions: lowest tested rate with 80% or greater inhibition; rates 300, 100, 30, 10 g/ha; about 14 days
Method in brief: as §1

ALOMY (blackgrass) = assay: Pre-emergence herbicidal activity, cool season; type: in vivo, Alopecurus myosuroides; conditions: GR80 = lowest tested rate (300, 100, 30, 10 g/ha) with 80% or greater inhibition; approx. 14 days after treating; 18/13° C.
Method in brief: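 Herbicidal efficacy was judged visually as percent inhibition compared with untreated plants some 14 days after treatment, giving GR80 over doses of 10 to 300 g/ha. Proso millet and crabgrass grew at 30/21 °C; blackgrass and wild buckwheat grew at 18/13 °C.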

[4] = system: SORHA (johnsongrass (seedling)); assay: Pre-plant incorporated (PPI) herbicidal activity, warm season; type: in vivo, Sorghum halepense; conditions: for PPI activity GR80, SORHA: pre-plant incorporated, lowest tested rate with 80% or greater inhibition, about 14 days
Method in brief: (§2)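 Seeds were sown on compacted topsoil and covered with soil that had been sprayed with compound in organic solvent and mixed through. Pots got 0.64 cm overhead irrigation, then greenhouse at 30/21 °C (warm-season species) or 18/13 °C (cool-season species) day/night. Percent inhibition versus untreated plants was scored about 14 days after planting.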

SETFA (giant foxtail) [5] = assay: as above; type: in vivo, Setaria faberi; conditions: for PPI activity GR80, SETFA: pre-plant incorporated, lowest tested rate with 80% or greater inhibition, about 14 days
Method in brief: as §2

DIGSA (large crabgrass) = assay: as above; type: in vivo, Digitaria sanguinalis; conditions: for PPI activity GR80, DIGSA: pre-plant incorporated, lowest tested rate with 80% or greater inhibition, about 14 days
Method in brief: as §2

SINAR (wild mustard) = assay: Pre-plant incorporated (PPI) herbicidal activity, cool season; type: in vivo, Sinapis arvensis; conditions: for PPI activity GR80, SINAR: pre-plant incorporated, lowest tested rate with 80% or greater inhibition, about 14 days
Method in brief: as §2

corn (ZEAMX) = assay: Selectivity test, PPI, warm season crop; type: in vivo, Zea mays; conditions: PPI application
Method in brief: (§3)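 Pre-plant incorporated: compound in organic solvent sprayed onto cover soil, mixed and laid over seeds; untreated soil for controls. Greenhouse after treatment: warm season 30/21° C., cool season 18/13° C. day/night. Percent inhibition versus untreated plants scored about 14 days after planting.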

barley (HORVX) = assay: Selectivity test, PPI, cool season crop; type: in vivo, Hordeunm vulgare; conditions: PPI application
Method in brief: as §3

C=C(Br)CC(F)(F)S(=O)(=O)c1ncn(C(=O)N(CC)CC)n1 [Example 19]
Pre-emergence activity (GR80) ECHCG (ECHCG (barnyardgrass)): 300 g/ha
Pre-emergence activity (GR80) SETFA (SETFA (giant foxtail) [1]): 300 g/ha
Pre-emergence activity GR80, GALAP [2]: 300 g/ha
Pre-emergence activity GR80, VERPE [3]: 300 g/ha
Pre-emergence activity (GR80) ALOMY (ALOMY (blackgrass)): 100 g/ha
inhibition at 10 g/ha ([4]; Sorghum halepense, PPI application, 10 g/ha, read-out: Percent inhibition SORHA): 60%
inhibition at 30 g/ha ([4]; Sorghum halepense, PPI application, 30 g/ha, read-out: Percent inhibition SORHA): 80%
inhibition at 100 g/ha ([4]; Sorghum halepense, PPI application, 100 g/ha, read-out: Percent inhibition SORHA): 100%
inhibition at 300 g/ha ([4]; Sorghum halepense, PPI application, 300 g/ha, read-out: Percent inhibition SORHA): 100%
inhibition at 900 g/ha ([4]; Sorghum halepense, PPI application, 900 g/ha, read-out: Percent inhibition SORHA): 100%
PPI activity GR80, SORHA [4]: 100 g/ha
inhibition at 10 g/ha (SETFA (giant foxtail) [5]; Setaria faberi, PPI application, 10 g/ha, read-out: Percent inhibition SETFA): 90%
inhibition at 30 g/ha (SETFA (giant foxtail) [5]; Setaria faberi, PPI application, 30 g/ha, read-out: Percent inhibition SETFA): 100%
inhibition at 100 g/ha (SETFA (giant foxtail) [5]; Setaria faberi, PPI application, 100 g/ha, read-out: Percent inhibition SETFA): 90%
inhibition at 300 g/ha (SETFA (giant foxtail) [5]; Setaria faberi, PPI application, 300 g/ha, read-out: Percent inhibition SETFA): 100%
inhibition at 900 g/ha (SETFA (giant foxtail) [5]; Setaria faberi, PPI application, 900 g/ha, read-out: Percent inhibition SETFA): 100%
PPI activity GR80, SETFA (SETFA (giant foxtail) [5]): 30 g/ha
inhibition at 30 g/ha (DIGSA (large crabgrass); Digitaria sanguinalis, PPI application, 30 g/ha, read-out: Percent inhibition DIGSA): 40%
inhibition at 100 g/ha (DIGSA (large crabgrass); Digitaria sanguinalis, PPI application, 100 g/ha, read-out: Percent inhibition DIGSA): 90%
inhibition at 300 g/ha (DIGSA (large crabgrass); Digitaria sanguinalis, PPI application, 300 g/ha, read-out: Percent inhibition DIGSA): 90%
inhibition at 900 g/ha (DIGSA (large crabgrass); Digitaria sanguinalis, PPI application, 900 g/ha, read-out: Percent inhibition DIGSA): 99%
PPI activity GR80, DIGSA (DIGSA (large crabgrass)): 30 g/ha
inhibition at 10 g/ha (SINAR (wild mustard); Brassica, weed, PPI application, 10 g/ha, read-out: Percent inhibition SINAR): 100%
inhibition at 100 g/ha (SINAR (wild mustard); Brassica, weed, PPI application, 100 g/ha, read-out: Percent inhibition SINAR): 100%
inhibition at 300 g/ha (SINAR (wild mustard); Brassica, weed, PPI application, 300 g/ha, read-out: Percent inhibition SINAR): 100%
inhibition at 900 g/ha (SINAR (wild mustard); Brassica, weed, PPI application, 900 g/ha, read-out: Percent inhibition SINAR): 100%
PPI activity GR80, SINAR (SINAR (wild mustard)): 300 g/ha
inhibition at 10 g/ha (corn (ZEAMX); Zea mays, 10 g/ha, read-out: Percent inhibition ZEAMX): 0%
inhibition at 30 g/ha (corn (ZEAMX); Zea mays, 30 g/ha, read-out: Percent inhibition ZEAMX): 0%
inhibition at 100 g/ha (corn (ZEAMX); Zea mays, 100 g/ha, read-out: Percent inhibition ZEAMX): 10%
inhibition at 300 g/ha (corn (ZEAMX); Zea mays, 300 g/ha, read-out: Percent inhibition ZEAMX): 10%
inhibition at 900 g/ha (corn (ZEAMX); Zea mays, 900 g/ha, read-out: Percent inhibition ZEAMX): 35%
inhibition at 10 g/ha (barley (HORVX); Hordeum vulgare, 10 g/ha, read-out: Percent inhibition HORVX): 0%
inhibition at 30 g/ha (barley (HORVX); Hordeum vulgare, 30 g/ha, read-out: Percent inhibition HORVX): 0%
inhibition at 100 g/ha (barley (HORVX); Hordeum vulgare, 100 g/ha, read-out: Percent inhibition HORVX): 20%
inhibition at 300 g/ha (barley (HORVX); Hordeum vulgare, 300 g/ha, read-out: Percent inhibition HORVX): 20%
inhibition at 900 g/ha (barley (HORVX); Hordeum vulgare, 900 g/ha, read-out: Percent inhibition HORVX): 45%

C=C(CC(F)(F)S(=O)(=O)c1ncn(C(=O)N(CC)CC)n1)C[Si](C)(C)C [Example 20]
Pre-emergence activity (GR80) ECHCG (ECHCG (barnyardgrass)): 300 g/ha
Pre-emergence activity (GR80) SETFA (SETFA (giant foxtail) [1]): 100 g/ha
Pre-emergence activity GR80, GALAP [2]: [empty]
Pre-emergence activity GR80, VERPE [3]: [empty]
Pre-emergence activity (GR80) ALOMY (ALOMY (blackgrass)): 100 g/ha
Percent inhibition SORHA ([4]; PPI application, 30 g/ha): 0%
Percent inhibition SORHA ([4]; PPI application, 100 g/ha): 20%
Percent inhibition SORHA ([4]; PPI application, 300 g/ha): 80%
Percent inhibition SORHA ([4]; PPI application, 900 g/ha): 80%
PPI activity GR80, SORHA [4]: 100 g/ha
Percent inhibition SETFA (SETFA (giant foxtail) [5]; PPI application, 10 g/ha): 0%
Percent inhibition SETFA (SETFA (giant foxtail) [5]; PPI application, 30 g/ha): 70%
Percent inhibition SETFA (SETFA (giant foxtail) [5]; PPI application, 100 g/ha): 99%
Percent inhibition SETFA (SETFA (giant foxtail) [5]; PPI application, 300 g/ha): 90%
Percent inhibition SETFA (SETFA (giant foxtail) [5]; PPI application, 900 g/ha): 100%
PPI activity GR80, SETFA (SETFA (giant foxtail) [5]): 100 g/ha
Percent inhibition DIGSA (DIGSA (large crabgrass); PPI application, 10 g/ha): 0%
Percent inhibition DIGSA (DIGSA (large crabgrass); PPI application, 30 g/ha): 80%
Percent inhibition DIGSA (DIGSA (large crabgrass); PPI application, 100 g/ha): 90%
Percent inhibition DIGSA (DIGSA (large crabgrass); PPI application, 300 g/ha): 100%
Percent inhibition DIGSA (DIGSA (large crabgrass); PPI application, 900 g/ha): 99%
PPI activity GR80, DIGSA (DIGSA (large crabgrass)): 100 g/ha
PPI activity GR80, SINAR (SINAR (wild mustard)): * (activity observed, at least at highest rate, but <80% inhibition)
Percent inhibition SINAR (SINAR (wild mustard); weed, PPI application, 10 g/ha): 30%
Percent inhibition SINAR (SINAR (wild mustard); weed, PPI application, 30 g/ha): 80%
Percent inhibition SINAR (SINAR (wild mustard); weed, PPI application, 100 g/ha): 80%
Percent inhibition SINAR (SINAR (wild mustard); weed, PPI application, 300 g/ha): 60%
Percent inhibition SINAR (SINAR (wild mustard); weed, PPI application, 900 g/ha): 70%
Percent inhibition ZEAMX (corn (ZEAMX); 10 g/ha): 0%
Percent inhibition ZEAMX (corn (ZEAMX); 30 g/ha): 0%
Percent inhibition ZEAMX (corn (ZEAMX); 100 g/ha): 0%
Percent inhibition ZEAMX (corn (ZEAMX); 300 g/ha): 20%
Percent inhibition ZEAMX (corn (ZEAMX); 900 g/ha): 40%
Percent inhibition HORVX (barley (HORVX); 10 g/ha): 0%
Percent inhibition HORVX (barley (HORVX); 30 g/ha): 0%
Percent inhibition HORVX (barley (HORVX); 100 g/ha): 0%
Percent inhibition HORVX (barley (HORVX); 300 g/ha): 10%
Percent inhibition HORVX (barley (HORVX); 900 g/ha): 30%
